Broadly, the EC50 is the concentration needed to bring the measured effect to its halfway point.

The record followed here is patent US4554284A, “7-(2-Aminoethyl)-1,3-benzthia- or oxa-zol-2(3H)-ones” (Smithkline Beckman Corporation, priority 1984, dated 1985).

Read-outs that look alike come from different tables or passages of the source.

The target in this experiment is T1, D2-receptors (presynaptic dopaminergic receptors) (Oryctolagus cuniculus, UniProt G1T1Q0).
T1 construct: perfused rabbit ear artery protocol; from tissue; host or cells: rabbit ear artery (perfused, isolated)
T1 sequence (G1T1Q0 1-443): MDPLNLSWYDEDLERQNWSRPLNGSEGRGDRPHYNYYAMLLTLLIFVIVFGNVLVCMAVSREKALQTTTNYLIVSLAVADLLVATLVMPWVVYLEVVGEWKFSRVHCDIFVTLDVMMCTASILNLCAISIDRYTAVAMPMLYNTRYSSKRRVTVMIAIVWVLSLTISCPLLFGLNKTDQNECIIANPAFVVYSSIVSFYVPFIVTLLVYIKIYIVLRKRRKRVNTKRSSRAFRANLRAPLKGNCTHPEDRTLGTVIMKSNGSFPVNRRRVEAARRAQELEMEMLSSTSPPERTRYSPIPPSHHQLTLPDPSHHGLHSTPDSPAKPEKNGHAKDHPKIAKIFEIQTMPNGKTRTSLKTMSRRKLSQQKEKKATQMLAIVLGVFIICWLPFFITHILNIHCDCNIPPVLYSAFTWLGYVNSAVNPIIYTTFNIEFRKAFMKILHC
Briefly: perfused rabbit ear artery protocol (D2-agonist activity). In kind it is cell-based.

Where [1] appears, read: perfused rabbit ear artery, D2-agonist activity, read-out: EC50.

With `CCCN(CCC)CCc1c(Cl)cc(O)c2nc(O)sc12` [B, 4-hydroxy-6-chloro-7-[2-(di-n-propylamino)ethyl]-1,3-benzthiazol-2(3H)-one], the EC50 under setting [1] was 0.05 µM. Same read-out and setting: with `CCCN(CCC)CCc1ccc(O)c2[nH]c(=O)ccc12` [E, 8-hydroxy-5-[2-(di-n-propylamino)ethyl]-carbostyril, reference compound] the figure was 0.2 µM; with `CCCN(CCC)CCc1ccc(O)c2[nH]c(=O)oc12` [C, 4-hydroxy-7-[2-(di-n-propylamino)ethyl]-1,3-benzoxazol-2(3H)-one], 0.008 µM. In the case of `CCCN(CCC)CCc1ccc(O)c2[nH]c(=O)sc12` [Compound A, 4-hydroxy-7-[2-(di-n-propylamino)ethyl]-1,3-benzthiazol-2(3H)-one], the “times more potent than its oxa congener” value was around 40 times and the “times more potent than the corresponding indolone” value is 10 times. For the same molecule, the EC50 under setting [1] worked out at 0.0002 µM. As for `NCCc1ccc(O)c(O)c1` [D, dopamine, reference compound], the EC50 was 0.04 µM.
